Test results published in PMC11995724, “Antibiotic target discovery by integrated phenotypic and activity-based profiling of electrophilic fragments” (Cell chemical biology, 2025).

Experiment: in vitro
Details: human, hek293t cells
Protocol: Mammalian cytotoxicity measurement was performed using Cell Titer-Glo 2.0 Cell Viability Assay (Promega, G9243) according to the manufacturer protocol. In brief, mammalian cells were seeded into 384-well white plates (Greiner, 781080) and incubated at 37°C for one day. Compounds from the Cys-Library were dispensed into the assay plate using epMotion 96. The plates were then incubated at 37°C for two days. An equal volume of Cell Titer-Glo 2.0 reagent was added into each well of the assay plate using epMotion 96 and incubated at 22°C for 10 min, followed by luminescence measurement using a Cytation 5 plate reader (BioTek).

SMILES	viability at 48 h, 25 µM
C=CC(=O)NC(CO)c1ccnn1C (centres unmarked) [2-D17, N-[2-hydroxy-1-(1-methyl-1H-pyrazol-5-yl)ethyl]prop-2-enamide]	45.9%
C=CC(=O)N1CCC(C(=O)NCC2([S+](C)[O-])CCC2)CC1 (centres unmarked) [2-D18, N-[(1-methanesulfinylcyclobutyl)methyl]-1-(prop-2-enoyl)piperidine-4-carboxamide]	73.4%
C=CC(=O)N(C)Cc1ncc(C(F)(F)F)n1C [2-D19, N-methyl-N-{[1-methyl-5-(trifluoromethyl)-1H-imidazol-2-yl]methyl}prop-2-enamide]	70.6%
C=CC(=O)NCCC(=O)N1CCCN(C(=O)c2ccccc2F)CC1 [2-D20, N-{3-[4-(2-fluorobenzoyl)-1,4-diazepan-1-yl]-3-oxopropyl}prop-2-enamide]	93.7%
C=CC(=O)NCc1ncccc1S(C)(=O)=O [2-D21, N-[(3-methanesulfonylpyridin-2-yl)methyl]prop-2-enamide]	80%
C=CC(=O)NCc1ccc(C(=O)N2CCCC2C(=O)N(C)C)cc1 (centres unmarked) [2-D22, N,N-dimethyl-1-{4-[(prop-2-enamido)methyl]benzoyl}pyrrolidine-2-carboxamide]	71.2%
C=CC(=O)NCC1CC(CC(=O)O)CO1 (centres unmarked) [2-E03, 2-{5-[(prop-2-enamido)methyl]oxolan-3-yl}acetic acid]	182%
C=CC(=O)NC1(c2ccc(C(F)(F)F)cc2)CCCC1 [2-E04, N-{1-[4-(trifluoromethyl)phenyl]cyclopentyl}prop-2-enamide]	82.6%
C=CC(=O)NC[C@@H]1C[C@H](F)CN1Cc1ccnn1C [2-E05, N-{[(2S,4S)-4-fluoro-1-[(1-methyl-1H-pyrazol-5-yl)methyl]pyrrolidin-2-yl]methyl}prop-2-enamide]	78.5%
C=CC(=O)Nc1ccc(S(=O)(=O)N(C)C)c(C)c1 [2-E06, N-[4-(dimethylsulfamoyl)-3-methylphenyl]prop-2-enamide]	78.7%
C=CC(=O)N(Cc1cc(C)cc2c(C)c(C)[nH]c12)CC1(C)COC1 [2-E07, N-[(3-methyloxetan-3-yl)methyl]-N-[(2,3,5-trimethyl-1H-indol-7-yl)methyl]prop-2-enamide]	80.6%
C=CC(=O)N1CCC(n2cc(CO)nn2)C1 (centres unmarked) [2-E08, 1-{3-[4-(hydroxymethyl)-1H-1,2,3-triazol-1-yl]pyrrolidin-1-yl}prop-2-en-1-one]	81.8%
C=CC(=O)N1CCC(c2nc(C3CC3)no2)C1 (centres unmarked) [2-E09, 1-[3-(3-cyclopropyl-1,2,4-oxadiazol-5-yl)pyrrolidin-1-yl]prop-2-en-1-one]	70%
C=CC(=O)Nc1cc(NC(=O)C2CCC2)ccc1F [2-E10, N-[4-fluoro-3-(prop-2-enamido)phenyl]cyclobutanecarboxamide]	86.7%
C=CC(=O)NC1CN(S(=O)(=O)c2ccc3c(c2)OCCO3)C1 [2-E11, N-[1-(2,3-dihydro-1,4-benzodioxine-6-sulfonyl)azetidin-3-yl]prop-2-enamide]	79.7%
C=CC(=O)N1CCC(C(=O)N2CCCC2COC)CC1 (centres unmarked) [2-E12, 1-{4-[2-(methoxymethyl)pyrrolidine-1-carbonyl]piperidin-1-yl}prop-2-en-1-one]	116%
C=CC(=O)N(Cc1ccc(F)c(C)c1)CC1(O)CCSCC1 [2-E13, N-[(4-fluoro-3-methylphenyl)methyl]-N-[(4-hydroxythian-4-yl)methyl]prop-2-enamide]	55.6%
C=CC(=O)NCCS(=O)(=O)N1CCOCC1 [2-E14, N-[2-(morpholine-4-sulfonyl)ethyl]prop-2-enamide]	94.6%
C=CC(=O)NCc1nc(C(C)(C)O)n[nH]1 [2-E15, N-{[3-(2-hydroxypropan-2-yl)-1H-1,2,4-triazol-5-yl]methyl}prop-2-enamide]	116%
C=CC(=O)Nc1ccc(-n2nc(C)[nH]c2=O)cc1 [2-E16, N-[4-(3-methyl-5-oxo-4,5-dihydro-1H-1,2,4-triazol-1-yl)phenyl]prop-2-enamide]	101%
C=CC(=O)N1CCCCC(S(C)(=O)=O)C1 (centres unmarked) [2-E17, 1-(3-methanesulfonylazepan-1-yl)prop-2-en-1-one]	110%
C=CC(=O)N1CCCC(CS(=O)(=O)NC)C1 (centres unmarked) [2-E18, N-methyl-1-[1-(prop-2-enoyl)piperidin-3-yl]methanesulfonamide]	95%
C=CC(=O)NC1CCC(n2c(C)ccc2C)CC1 (centres unmarked) [2-E19, N-[4-(2,5-dimethyl-1H-pyrrol-1-yl)cyclohexyl]prop-2-enamide]	71.1%
C=CC(=O)N(C)CC(=O)N1CCCCC1c1nc(C)c(C)s1 (centres unmarked) [2-E20, N-{2-[2-(4,5-dimethyl-1,3-thiazol-2-yl)piperidin-1-yl]-2-oxoethyl}-N-methylprop-2-enamide]	116%
C=CC(=O)Nc1ccc(C(=O)N2CCC[C@@H]2C(=O)OC)cc1 [2-E21, methyl (2R)-1-[4-(prop-2-enamido)benzoyl]pyrrolidine-2-carboxylate]	104%

SMILES	viability at 48 h, 25 µM
C=CC(=O)NC(CO)c1cccc(OC)c1 (centres unmarked) [2-E22, N-[2-hydroxy-1-(3-methoxyphenyl)ethyl]prop-2-enamide]	122%
C=CC(=O)NCCn1cc(Cl)c(C(F)(F)F)n1 [2-F03, N-{2-[4-chloro-3-(trifluoromethyl)-1H-pyrazol-1-yl]ethyl}prop-2-enamide]	81.6%
C=CC(=O)N1CCC(C(=O)N2Cc3ccc([N+](=O)[O-])cc3C2)CC1 [2-F04, 1-[4-(5-nitro-2,3-dihydro-1H-isoindole-2-carbonyl)piperidin-1-yl]prop-2-en-1-one]	82.7%
C=CC(=O)N1CCC(C(=O)N2CCCC(NC(=O)C(C)(C)C)C2)CC1 (centres unmarked) [2-F05, 2,2-dimethyl-N-{1-[1-(prop-2-enoyl)piperidine-4-carbonyl]piperidin-3-yl}propanamide]	75.6%
C=CC(=O)NCCC(=O)N1CCN(c2nc(C)cs2)C(C)C1 (centres unmarked) [2-F06, N-{3-[3-methyl-4-(4-methyl-1,3-thiazol-2-yl)piperazin-1-yl]-3-oxopropyl}prop-2-enamide]	92.9%
C=CC(=O)NC1CCOC(c2cnn(C)c2)C1 (centres unmarked) [2-F07, N-[2-(1-methyl-1H-pyrazol-4-yl)oxan-4-yl]prop-2-enamide]	73%
C=CC(=O)N(CC)CC(=O)N1CCCC1c1ccc(F)cc1C (centres unmarked) [2-F08, N-ethyl-N-{2-[2-(4-fluoro-2-methylphenyl)pyrrolidin-1-yl]-2-oxoethyl}prop-2-enamide]	74.7%
C=CC(=O)NC1CC(CC(F)(F)F)C1 (centres unmarked) [2-F09, N-[3-(2,2,2-trifluoroethyl)cyclobutyl]prop-2-enamide]	65.5%
C=CC(=O)N1CCC(C(=O)N(C)Cc2cc(C(C)(C)C)[nH]n2)CC1 [2-F10, N-[(5-tert-butyl-1H-pyrazol-3-yl)methyl]-N-methyl-1-(prop-2-enoyl)piperidine-4-carboxamide]	45.6%
C=CC(=O)NCc1cn(C(F)F)c2ccccc12 [2-F11, N-{[1-(difluoromethyl)-1H-indol-3-yl]methyl}prop-2-enamide]	49%
C=CC(=O)N1CCC(C(=O)N2CCCC(CC(N)=O)CC2)CC1 (centres unmarked) [2-F12, 2-{1-[1-(prop-2-enoyl)piperidine-4-carbonyl]azepan-4-yl}acetamide]	65.1%
C=CC(=O)NCc1coc(-c2ccc(C)cc2)n1 [2-F13, N-{[2-(4-methylphenyl)-1,3-oxazol-4-yl]methyl}prop-2-enamide]	48.2%
C=CC(=O)N1CCC(C(=O)N(C)C(C)Cc2ccc(C)cc2)CC1 (centres unmarked) [2-F14, N-methyl-N-[1-(4-methylphenyl)propan-2-yl]-1-(prop-2-enoyl)piperidine-4-carboxamide]	79.5%
C=CC(=O)NCc1cc(Cl)c2c(c1)OCO2 [2-F15, N-[(7-chloro-1,3-dioxaindan-5-yl)methyl]prop-2-enamide]	50.9%
C=CC(=O)N(C)CC(=O)N1CCC(CN2CCCCC2=O)CC1 [2-F16, N-methyl-N-(2-oxo-2-{4-[(2-oxopiperidin-1-yl)methyl]piperidin-1-yl}ethyl)prop-2-enamide]	57%
C=CC(=O)NCC1CNC(=O)c2ccccc21 (centres unmarked) [2-F17, N-[(1-oxo-1,2,3,4-tetrahydroisoquinolin-4-yl)methyl]prop-2-enamide]	54.8%
C=CC(=O)Nc1ccc(-c2nnnn2C)cc1 [2-F18, N-[4-(1-methyl-1H-1,2,3,4-tetrazol-5-yl)phenyl]prop-2-enamide]	95.5%
C=CC(=O)NCc1cnc(C)n1-c1ccccc1 [2-F19, N-[(2-methyl-1-phenyl-1H-imidazol-5-yl)methyl]prop-2-enamide]	49%
C=CC(=O)Nc1ccc(C(=O)N[C@@H]2CCN(C(C)=O)C2)cc1 [2-F20, N-[(3R)-1-acetylpyrrolidin-3-yl]-4-(prop-2-enamido)benzamide]	73.4%
C=CC(=O)Nc1ccnc(OC)c1 [2-F21, N-(2-methoxypyridin-4-yl)prop-2-enamide]	1.66%
C=CC(=O)NCc1ccc(C(=O)N2CCN(c3nc(C)n[nH]3)CC2)cc1 [2-F22, N-({4-[4-(3-methyl-1H-1,2,4-triazol-5-yl)piperazine-1-carbonyl]phenyl}methyl)prop-2-enamide]	78.3%
C=CC(=O)N1CCC[C@H]1c1ccon1 [2-G03, 1-[(2S)-2-(1,2-oxazol-3-yl)pyrrolidin-1-yl]prop-2-en-1-one]	181%
C=CC(=O)N1CCC(C(=O)NCC(C)(C)C=C)CC1 [2-G04, N-(2,2-dimethylbut-3-en-1-yl)-1-(prop-2-enoyl)piperidine-4-carboxamide]	84.5%
C=CC(=O)Nc1nn(CC(C)C)cc1Cl [2-G05, N-[4-chloro-1-(2-methylpropyl)-1H-pyrazol-3-yl]prop-2-enamide]	103%
C=CC(=O)N1Cc2ccccc2C[C@@H]1C(=O)NC1CC1 [2-G06, (3R)-N-cyclopropyl-2-(prop-2-enoyl)-1,2,3,4-tetrahydroisoquinoline-3-carboxamide]	101%
